What all share (type): cell-based, human
One assay has as its system glioma cell line U118MG. Nature of the assay: Example 2: CellTiter-Glo readout of cell numbers, ketones added to Medium A-C. The conditions noted are these: for number of cells compared to 8 mM LiCl control: 8 mM Acac; for growth, repeat experiments 2-6 (inconsistent results): ketone added separately (16 mM BOHB or 8 mM Acac), FIG. 15. The procedure:
(§1) To study the effect of a nutrient restricted ketogenic environment on cancer cell growth in vitro, three different cell culture media were formulated. Medium A was full RPMI1640 medium that the cell lines routinely are cultured in. Medium B was used as an approximation of the conditions found in normal human serum. The levels of glucose, glutamine, serine, glycine and arginine were adjusted to match normal physiological levels found in human serum. These nutrients were selected based on their reported use as energy source and effects on cancer cell metabolic state. Medium C was used to emulate the ketogenic nutrient restricted Cancer Dialysis condition. Here, the levels of the selected nutrients were reduced to half of the physiological levels in Medium B, and the ketone body BOHB was added.
(§2) Human cancer cell lines are routinely established and cultured at atmospheric oxygen levels (21% O2), yet, the physiological oxygen levels in tissue is considerably lower and varies from 3-13% [Ward, Biochim Biophys Acta 2008; 1777:1-14. Within the tumor microenvironment, the fast growth rate of cancer cells combined with an often malformed and defective vasculature often results in hypoxic regions with oxygen levels ranging from 0-5%. Given the effects of oxygen levels on energy metabolism [Xie et al., J Biol Chem 2017; 292:16825-16832], and to further mimic the physiological conditions in vivo, the growth of the cancer cell lines in Medium A, B and C was studied at both ambient, 21% O2, and at the more physiological 5% O2.
(§3) Cells were maintained in RPMI-1640 medium (31870-025 GIBCO) with the addition of 10% serum, 200 mM L-glutamine and 1% penicillin-streptomycin (PEST) in humidified chambers at 37° C. and 5% CO2. For hypoxic conditions (5% O2), cells were maintained in a Galaxy 14 S CO2 incubator (Eppendorf) where N2 was used to adjust the O2 level to 5%.
(§4) Medium A: RPMI1640 (31870-025, GIBCO) with the addition of 1% PEST, 200 mM L-glutamine and 10% dialyzed serum. Dialyzed serum was used to reduce the amounts of small molecules such as amino acids.
(§5) Medium B and C were prepared from RPMI1640 modified medium powder without L-glutamine, glucose and amino acids (R9010-01, US Biological Life Sciences). For 1 L medium, 7.4 g powder was dissolved in 900 ml sterile water without heating and 2 g sodium bicarbonate was added. Amino acids listed in Table 5 were added to the same concentration as in full RPMI1640 medium (Table 5). After all additions, the medium was sterilized by filtering through 0.22 um membranes and divided into two bottles.
(§6) In Medium B, to mimic physiological conditions, the levels of glutamine, serine, glycine, arginine and glucose were set to the median of measured levels in human serum, based on data from the Mayo Clinic Laboratories (https://www.mayocliniclabs.com/test-catalog/Clinical+and+Interpretive/9265).
(§7) To model Cancer Dialysis conditions in Medium C, the levels of these nutrients were reduced to 50% of the physiological levels. As for Medium A, 1% PEST and 10% dialyzed serum were added to Medium B and C. Sodium pyruvate, that is a common addition in cell culture medium, was not present in any of the used media.
(§8) Stock solutions of DL-β-Hydroxybutyric acid sodium salt (H6501, Sigma Aldrich) and Lithium Acetoacetate (A8509, Sigma Aldrich) were prepared in water, sterile filtered, aliquoted and stored at −20° C. Lithium Chloride (L7026, Sigma Aldrich) was used as a control for the addition of Lithium in the Li-Acac.
(§9) CellTiter-Glo Luminescent cell viability assay (Promega) was used as a readout of cell numbers according to the manufacturers' instructions. In experiments shown in FIG. 12-13, double plates were seeded and treated. One set of plates was used for collection of medium for lactate measurement (see below) and the CellTiterGlo-assay. The other set of plates was frozen at −80° C. at the end of the experiment. […]
For orientation: In ATP-based viability assays light output follows the ATP content of the culture.

The next assay has as its system glioma cell line A172. Described as above. The conditions noted are these: for number of cells compared to 8 mM LiCl control: 8 mM Acac; for growth, repeat experiments 2-6 (inconsistent results): ketone added separately (16 mM BOHB or 8 mM Acac), FIG. 14. The procedure:
as §1, §2, §3, §4, §5, §6, §7, §8, §9

Assay [1] relates to RCC4 renal carcinoma cell line. As to the kind of experiment: Example 2: CellTiter-Glo readout of cell numbers in Medium A-C. To be noted: high levels of BOHB or combination of BOHB and Acac, FIG. 16. The procedure: as §1, with “Here, the levels of the selected nutrients were reduced to half of the physiological levels in Medium B, and the ketone body BOHB was added.” left out
All cell lines were purchased from ATCC (ATCC, LGC standards) except for RCC4 that was from Sigma-Aldrich (Merck). […] Optimal seeding density was determined for each cell line in 96-well plates cultured for 3 days in standard cell culture medium. […]
In Medium B, to mimic physiological conditions, the levels of glutamine, serine, glycine, arginine and glucose were set to the median of measured levels in human serum, based on data from the Mayo Clinic Laboratories (https://www.mayocliniclabs.com/test-catalog/Clinical+and+Interpretive/9265). […]
CellTiter-Glo Luminescent cell viability assay (Promega) was used as a readout of cell numbers according to the manufacturers' instructions. […]

The test system of assay [2] is RCC4 (renal cell carcinoma). Nature of the assay: Study 2: CellTiter-Glo cell viability, DMEM without sodium pyruvate. To be noted: increase in BOHB concentration (0, 4, 12 mM), 3 d, FIG. 7. The procedure:
(§10) Cell lines established from human colon carcinoma (HCT15, NCI-H508 and COLO205), renal cell carcinoma (769-P, 786-O and RCC4) and glioblastoma (LN-18, A-172 and U-118 MG) were selected for the analysis. All cell lines were obtained from American Type Culture Collection (ATCC, LGC standards, UK) except for RCC4 and HCT15 that was purchased from Sigma-Aldrich (Merck, Germany). In addition, primary human renal cell carcinoma (RCC) cells isolated from patient nephrectomies were included in the study. […]
(§11) Optimal seeding density was determined for each cell line in 96 well plates according to the “Protocol for optimizing cell seeding densities to ensure Log-phase growth”. […] Cover the plate. • Incubate the plate overnight at 37° C., 5% CO2. • Add 50 μL of fresh media to the plate wells to achieve a final volume of 200 μL and incubate for 72 h at 37° C., 5% CO2. • Measure viability using Cell Titer Glo assay according to manufacturer's protocol. • Plot log cell number against luminescence intensity to identify the concentration of cells at which log growth is achieved.
(§12) CellTiter-Glo Luminescent cell viability assay (Promega) was used as a readout of viability.
(§13) For each cell line, optimal number of cells as determined above were seeded into 96-well plates on day 0. […]

A further assay concerns A172 (glioblastoma). Described as above. The conditions noted are these: increase in BOHB concentration (0, 4, 12 mM), 3 d, FIG. 7. The procedure:
as §10, §11, §12, §13

[3] abbreviates: Medium A, both normoxia and hypoxia.
[4] abbreviates: Medium C, 16 mM BOHB, at both 21 and 5% O2.

Take `CC(=O)CC(=O)[O-].[Li+]` [Acac, Lithium Acetoacetate]: the “number of cells compared to 8 mM LiCl control” value is “did not reduce the number of cells further” in the assay on glioma cell line U118MG (setting [3]); “only at 21% O2” in the assay with glioma cell line U118MG (Medium B, 5% O2); “reduced the number of cells significantly” with glioma cell line U118MG (Medium B, 21% O2); “did not reduce the number of cells further” in the assay with glioma cell line A172 (setting [3]); “only at 21% O2” in the assay on glioma cell line A172 (Medium B, 5% O2); “reduced the number of cells significantly” in the assay on glioma cell line A172 (Medium B, 21% O2). Besides, the “amounts of cells compared to 8 mM LiCl control” value with glioma cell line U118MG (Medium C, 8 mM Acac alone) is “did not significantly reduce the amounts of cells”; in the assay with glioma cell line A172 (Medium C, 8 mM Acac alone) it was “did not significantly reduce the amounts of cells”. Moreover, the “growth, repeat experiments 2-6 (inconsistent results)” value in the assay with glioma cell line U118MG (Medium C) and in the assay with glioma cell line A172 (Medium C) was “trend of reduced growth” throughout.

On to `CC(O)CC(=O)[O-].[Na+]` (racemic) [BOHB, DL-β-Hydroxybutyric acid sodium salt], for which the growth inhibitory effect entry was “no growth inhibitory effect” with glioma cell line U118MG (Medium A, 16 mM BOHB alone, both normoxia and hypoxia, FIG. 13); “no growth inhibitory effect” in the assay with glioma cell line A172 (Medium A, 16 mM BOHB alone, both normoxia and hypoxia, FIG. 12). Also, the “number of cells, % compared to C-medium without BOHB” value with glioma cell line U118MG (setting [4]) and with glioma cell line A172 (setting [4]) was “around 30%” throughout. Also, the “growth, repeat experiments 2-6 (inconsistent results)” value in the assay on glioma cell line U118MG (Medium C) and with glioma cell line A172 (Medium C) was “trend of reduced growth” in each case. Further, in the assay with glioma cell line A172 (Medium B, hypoxic (5% O2), BOHB added (16 mM)), the “number of cells, % of the amount in Medium B without BOHB” value is recorded as “approximately 70%”. In assay [1], the “increased sensitivity to ketones in nutrient restricted Medium C” value is recorded as “not found”. Further, the proliferation of cells entry (in assay [2]; in the assay with A172 (glioblastoma)) was “suppresses the proliferation of cells” each time.

Source of the values: patent US20240374797A1, “SYSTEM AND METHOD FOR EXTRACORPOREAL BLOOD TREATMENT” (Gambro Lundia AB, priority 2020, published 2024).
